One assay relates to P. aeruginosa. Description: antimicrobial activity (MIC) of P-L-A conjugates. In kind it is cell-based.
The subject of assay [1] is S. aureus S113 persister cells. Description: persister cell plate killing assay. Particulars: 1.5 h. The format is cell-based, Staphylococcus aureus. Here is the method: Procedure for preparing S. aureus SA113 and E. coli Dh5α persister cells were based on previous protocols. Cells from freshly streaked agar plates were inoculated in 1 mL TSB and incubated 16 h at 37° C. in a shaker incubator to obtain stationary phase cultures. Non-persister cells were eliminated by adding ampicillin to a final concentration of 100 μg/mL, followed by 3 h incubation at 37° C.
S. aureus cells were diluted 10× into 10 mM Pipes at pH 7.4 buffer for a bacteria stock solution of roughly 10^9 CFU/mL. 20 μL S. aureus suspension was introduced into 180 μL Pipes buffer containing various concentrations of antibiotic (Pentobra, tobramycin) in 96 well plates for a total of ˜10^8 CFU/well. The plates were sealed with parafilm, loaded onto microplate shakers and placed in 37° C. incubator for 1.5 h. After incubation, 10-fold serial dilutions were made in Pipes buffer. Half of each dilution (100 μL) was spotted onto LB agar plates and incubated overnight at 37° C. to yield visible colonies. The S. aureus persister assays were performed in triplicate. The data shown are averages from two independent trials and were representative of the three assays.
The bactericidal effects of Pentobra against persistent bacteria were investigated with plate killing assays. […]

In brackets after ≈: the same amount, converted by molar mass.

We go through one compound from patent US20170348337A1, “MULTIFUNCTIONAL MEMBRANE-ACTIVE AMINOGLYCOSIDE-PEPTIDE CONJUGATES” (priority 2014, published 2017).

Take `NC[C@H]1O[C@H](O[C@H]2[C@H](O)[C@@H](O[C@H]3O[C@H](CO)[C@@H](O)[C@H](N)[C@H]3O)[C@H](N)C[C@@H]2N)[C@H](N)C[C@@H]1O` [tobramycin]: the MIC in the assay with P. aeruginosa (Pseudomonas aeruginosa, read-out: MIC (μM) P. aeruginosa (stationary)) was determined as 6.25 µM (≈ 2.92 µg/mL). Besides, the “MIC (μM) P. aeruginosa (mid-log)” value in the assay with P. aeruginosa (mid-log) is listed as 0.78-3.12 μM. Besides, in assay [1] (range of tested concentrations), the “reduction in CFU” value was “less than one”. For the same compound, the “killing activity against persister cells” value in assay [1] (varying concentrations) is “little susceptibility”.

As a reminder, the MIC is the lowest concentration that inhibits growth of the organism.
